Assay results taken from ChEMBL document CHEMBL1153858, “Application of phosphonyl carbanions to highly regioselective synthesis of some diazaphospholes and pyrazolinyl phosphonates” (2009).

Experiments:
Type in all cases: functional
[1] = tested on: Aspergillus flavus; assay: Antimicrobial activity against Aspergillus flavus assessed as activity index
[2] = tested on: Klebsiella pneumoniae; assay: Antimicrobial activity against Klebsiella pneumoniae assessed as activity index
[3] = tested on: Agrobacterium tumefaciens; assay: Antimicrobial activity against Bacillus tumefaciens assessed as activity index
[4] = tested on: Aspergillus niger; assay: Antimicrobial activity against Aspergillus niger
[5] = tested on: Staphylococcus aureus; assay: Antimicrobial activity against Staphylococcus aureus
[6] = tested on: Staphylococcus aureus; assay: Antimicrobial activity against Staphylococcus aureus assessed as activity index
[7] = tested on: Agrobacterium tumefaciens; assay: Antimicrobial activity against Bacillus tumefaciens
[8] = tested on: Aspergillus flavus; assay: Antimicrobial activity against Aspergillus flavus
[9] = tested on: Aspergillus niger; assay: Antimicrobial activity against Aspergillus niger assessed as activity index
[10] = tested on: Klebsiella pneumoniae; assay: Antimicrobial activity against Klebsiella pneumoniae
[11] = tested on: Penicillium chrysogenum; assay: Antimicrobial activity against Penicillium chrysogenum assessed as activity index
[12] = tested on: Penicillium chrysogenum; assay: Antimicrobial activity against Penicillium chrysogenum

| SMILES | Activity [1] | Activity [2] | Activity [3] | Diameter of inhibition zone [4] | Diameter of inhibition zone [5] | Activity [6] | Diameter of inhibition zone [7] | Diameter of inhibition zone [8] | Activity [9] | Diameter of inhibition zone [10] | Activity [11] | Diameter of inhibition zone [12] |
| --- | --- | --- | --- | --- | --- | --- | --- | --- | --- | --- | --- | --- |
| CCOP(=O)(OCC)C1=NN(CC)C2(C1)C(=O)c1ccccc1C2=O | 0.62 | 1 | 0.84 | 4.3 mm | 8 mm | 0.61 | 9.8 mm | 5 mm | 0.66 | 7.6 mm | 0.71 | 9 mm |
| CCOP(=O)(OCC)C1=NN(CC)C2(C1=O)C(=O)c1ccccc1C2=O | 0.88 | 0.63 | 0.57 | 6.1 mm | 7.6 mm | 0.83 | 7.6 mm | 7.4 mm | 0.73 | 8.2 mm | 1.06 | 5.9 mm |
| CCOC(=O)C1=NN(CC)C2(C(=O)c3ccccc3C2=O)P1(=O)OCC (stereo unspecified) | 1.35 | 0.8 | 0.78 | 7.4 mm | 8.5 mm | 0.88 | 11 mm | 9.6 mm | 1.23 | 11.3 mm | 1.42 | 7.8 mm |
| CCOP1(=O)C(C(=O)OC)=NN(CC)C12C(=O)c1ccccc1C2=O (stereo unspecified) | 1.12 | 1.04 | 0.9 | 8.4 mm | 9 mm | 0.85 | 12.2 mm | 9 mm | 1.18 | 10.3 mm | 1.31 | 7.9 mm |
| CCn1nc(SC)oc2c3ccccc3c(=O)c1=2 | 0.41 | 0.32 | 0.55 | 4.9 mm | 5.9 mm | 0.26 | 5.6 mm | 6.2 mm | 1.31 | 5.1 mm | 0.54 | 5.6 mm |
| CCOP1(=O)C(C#N)=NN(CC)C12C(=O)c1ccccc1C2=O (stereo unspecified) | 1.15 | 1.16 | 0.89 | 9 mm | 10 mm | 0.92 | 10 mm | 11.3 mm | 1.14 | 12 mm | 1 | 8 mm |
| CCOP1(=O)C(SC)=NN(CC)C12C(=O)c1ccccc1C2=O (stereo unspecified) | 1.36 | 0.81 | 0.92 | 8 mm | 12.8 mm | 1.16 | 12.6 mm | 9.8 mm | 1.14 | 10.5 mm | 1.32 | 9.2 mm |
| CCOP(=O)(OCC)C1=C(N)C2(N=N1)C(=O)c1ccccc1C2=O | 0.78 | 0.47 | 0.75 | 5.4 mm | 7.2 mm | 52 | 8.4 mm | 6.3 mm | 0.73 | 6 mm | 0.71 | 5.2 mm |
